From US12350341B2, “Methods for the treatment of cancer and benign lesions by ablation” (Duke University, priority 2017, dated 2025) come the findings set out here.

SMILES strings stand for the structures. Where “and” joins values, the source holds several entries; their conditions need not be identical. Equal entries are not always repeated. Where two headings read alike, the source gives them in different places.

Data set [1] concerns HeLa human cervical carcinoma cells. Briefly: In vitro viability study, trypan blue exclusion assay. It counts as cell-based. As to conditions: 0.5 mL solution added to 0.5 mL media, 15 seconds at room temperature, PBS control 86%. The protocol: Low passage HeLa human cervical carcinoma cells (ATCC) were maintained with Eagles minimum essential medium (MEM, Gibeo, Carlsbad, California) supplemented with 10% (vol.) fetal bovine serum, 1% (vol.) penicillin and 1% (vol.) streptomycin. Cells were passaged twice per week and maintained at 37° C. and 5% CO2. Cells were cultured in two 12-well plates and grown to 80% confluence. Immediately before the experiment, cell media was removed and 0.5 mL of fresh media was added to each well. Next, each well was treated with 0.5 mL of either ethanol (200 proof, Koptec, King of Prussia, PA), 3% (w/w) ethyl cellulose (USP, Sigma Aldrich, Rockville, MD) in ethanol or PBS (control), added directly to the media. […] Tapani, E., et al., Toxicity of ethanol in low concentrations. Experimental evaluation in cell culture. Acta Radiol, 1996. 37(6): p. 923-6. The media containing the treatment solution was then removed, each well was rinsed twice with 1 mL of PBS, and given 1 mL of fresh MEM media. After all wells had been treated, each well was rinsed one time with 1 mL of PBS, given 250 μL of […] trypsin (Gibed, Carlsbad, CA), and returned to the incubator for 5 minutes. […] Viability was then assessed with a trypan blue exclusion assay (Gibco, Carlsbad, CA and a Countess Automated Cell Counter, Invitrogen, Carlsbad, CA). […]

The subject of data set [2] is squamous cell carcinoma tumors in the hamster cheek pouch. As to conditions: for Tumors with complete response (no visible lesion): day 7, manual high-volume injection, 13 tumors ablated; for Tumor volume as % of the initial volume (normalized tumor volume): day 7, manual intratumoral injection, average 284±350 μL pure ethanol, 13 tumors. An excerpt:
The animal study protocol was approved by the Duke University Institutional Animal Care and Use Committee. For the manual pure ethanol ablation study, a total of 6 hamsters were used. For the rate- and viscosity-controlled study, a total of 8 hamsters were used. Tumors were induced through the topical application of dimethylbenz[a]anthracene (Sigma-Aldrich). Burns, R. A., et al., Tumor-localizing and photosensitizing properties of hematoporphyrin derivative in hamster buccal pouch carcinoma. Oral Surg Oral Med Oral Pathol, 1986. 61(4): p. 368-72. Three times a week the buccal mucosa of each cheek pouch was inverted then stretched from the mouth. An area of approximately […] was painted with a cotton swab dipped in the DMBA-mineral oil solution. The cheek pouches were painted until tumors of at least 100 uL in volume developed, at approximately 22 weeks.
Tumor volumes were measured before the injection and daily for 7 days after. […] They were only performed if the tumor volume had increased for two consecutive days after the 7 day observation period. Volumes were calculated by measuring the longest axis and the orthogonal axis and using the following formula: V=4/3π*(Rlong^2)*(Rorth). Complete response is defined as the total absence of any evidence of a tumor or raised lesion by visual examination.
For cell viability analysis, a one-Way ANOVA was used followed by a Tukey-HSD. For both phantom distribution volume and in vivo normalized tumor volume analysis, a non-parametric ANOVA was used (Kruskal-Wallis) followed by a non-parametric multiple comparisons test (Dunn's test). In comparing phantom distribution volume and in vivo normalized tumor volume, the Pearson's product moment correlation coefficient was calculated. All statistical analysis was performed in R. Normalized tumor volume was calculated by dividing by the volume at a given time point by the initial volume before treatment.

Data set [3] shares this test system. The experiment in a line: Injection rate- and viscosity-controlled ablation study, hamster cheek pouch model. As to conditions: day 7, 50 μL injected, mean over injection rates 0.1, 1.0, 10 and 100 mL/hr. The data set is classed as in vivo. The protocol:
Three percent ethyl cellulose (Sigma Aldrich)-ethanol solutions (weight by weight) were prepared by stirring at room temperature. Three percent was chosen as higher viscosities required a lockable needle to stay attached to the syringe at high injection rates. Two drops of blue food dye were added for every 1 mL of ethanol and ethyl cellulose-ethanol solutions to enhance contrast. 50 μL of either solution was injected at a rate of 0.1, 0.5, 1.0, 5.0, 10 or 35 mL/hr as controlled by a syringe pump (NE-300 Just Infusion Syringe Pump). Manual injections were approximately 100 mL/hr. A 1 mL syringe and 27 G needles connected with microtubing (Tygon Microtube Tubing, 0.25 mmID) were used for injections. On the outflow-end of the catheter tube a 27 G needle was snapped off the base to fit into the tubing.
Oral Surg Oral Med Oral Pathol, 1986. 61(4): p. 368-72. […] The cheek pouches were painted until tumors of at least 100 uL in volume developed, at approximately 22 weeks.
The average tumor volume was 195±140 μL and 50 μL of solution (either ethanol or 3% ethyl cellulose-ethanol) was injected. Solutions were injected with the syringe pump at 0.1, 1.0 or 10 mL/hr or injected manually. Tumor volume was measured before injections and at 1, 2 4 and 7 days following the injection. […] 36 total ablations were performed on 8 animals. […]

On to `CCO` [ethanol], for which the “Viability (live cell count/total cell count)” value in data set [1] was 19%. The “Tumors with complete response (no visible lesion)” value is 4 of 13 in data set [2]; 4 and 4 out of 13 and 4/13 in data set [2] (listed as pure ethanol). In addition, the “Tumor volume as % of the initial volume (normalized tumor volume)” value is 30% in data set [2] and 30±33% in data set [2] (listed as pure ethanol). The Normalized tumor volume in data set [3] is reported as 79±79%.
